For 18 molecules, IC50 results are on record in ChEMBL document CHEMBL1123410, “Selective thromboxane synthetase inhibitors. 2. 3-(1H-imidazol-1-ylmethyl)-2-methyl-1H-indole-1-propanoic acid and analogues” (J Med Chem, 1986).

One experiment deals with T1, Thromboxane-A synthase (Homo sapiens, UniProt P24557).
T1 sequence (P24557 whole entry): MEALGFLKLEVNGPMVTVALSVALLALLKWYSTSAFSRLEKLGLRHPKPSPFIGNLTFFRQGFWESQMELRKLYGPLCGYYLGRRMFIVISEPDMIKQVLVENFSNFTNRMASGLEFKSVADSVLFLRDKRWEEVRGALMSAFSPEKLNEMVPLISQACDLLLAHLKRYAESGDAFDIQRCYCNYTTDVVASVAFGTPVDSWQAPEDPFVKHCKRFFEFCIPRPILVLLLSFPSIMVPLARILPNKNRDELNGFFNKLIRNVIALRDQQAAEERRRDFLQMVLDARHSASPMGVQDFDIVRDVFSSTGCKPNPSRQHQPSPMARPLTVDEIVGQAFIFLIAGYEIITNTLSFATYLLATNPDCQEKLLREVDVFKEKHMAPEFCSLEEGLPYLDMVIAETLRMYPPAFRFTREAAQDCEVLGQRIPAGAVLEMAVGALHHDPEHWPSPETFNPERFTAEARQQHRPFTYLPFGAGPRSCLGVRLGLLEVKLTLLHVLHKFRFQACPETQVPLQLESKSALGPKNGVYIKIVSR
Briefly: Inhibition of TXA2 synthetase from human platelets.

In experiment [1] the target is T2, Cytochrome P450 11B1, mitochondrial (Rattus norvegicus, UniProt P15393).
T2 sequence (P15393 whole entry): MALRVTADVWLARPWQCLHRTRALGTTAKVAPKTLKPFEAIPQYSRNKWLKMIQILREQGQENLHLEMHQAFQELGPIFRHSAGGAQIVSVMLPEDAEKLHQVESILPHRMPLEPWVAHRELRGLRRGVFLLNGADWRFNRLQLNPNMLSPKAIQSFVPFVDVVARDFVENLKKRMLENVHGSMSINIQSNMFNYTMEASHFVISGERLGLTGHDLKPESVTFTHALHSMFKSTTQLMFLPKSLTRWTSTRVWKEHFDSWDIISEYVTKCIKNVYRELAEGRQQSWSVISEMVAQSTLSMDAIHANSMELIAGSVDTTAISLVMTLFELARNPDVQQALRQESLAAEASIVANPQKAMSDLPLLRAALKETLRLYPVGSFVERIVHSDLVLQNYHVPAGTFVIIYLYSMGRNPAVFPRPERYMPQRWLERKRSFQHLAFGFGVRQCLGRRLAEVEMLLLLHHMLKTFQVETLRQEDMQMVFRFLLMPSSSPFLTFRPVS
Briefly: Inhibition of 11 beta-hydroxylase from rat adrenal gland. The experiment is classed as tissue-based.

Experiment [2] addresses T3, Prostaglandin G/H synthase (cyclooxygenase) (Ovis aries, UniProt P05979+P79208).
T3 sequence (P05979 whole entry): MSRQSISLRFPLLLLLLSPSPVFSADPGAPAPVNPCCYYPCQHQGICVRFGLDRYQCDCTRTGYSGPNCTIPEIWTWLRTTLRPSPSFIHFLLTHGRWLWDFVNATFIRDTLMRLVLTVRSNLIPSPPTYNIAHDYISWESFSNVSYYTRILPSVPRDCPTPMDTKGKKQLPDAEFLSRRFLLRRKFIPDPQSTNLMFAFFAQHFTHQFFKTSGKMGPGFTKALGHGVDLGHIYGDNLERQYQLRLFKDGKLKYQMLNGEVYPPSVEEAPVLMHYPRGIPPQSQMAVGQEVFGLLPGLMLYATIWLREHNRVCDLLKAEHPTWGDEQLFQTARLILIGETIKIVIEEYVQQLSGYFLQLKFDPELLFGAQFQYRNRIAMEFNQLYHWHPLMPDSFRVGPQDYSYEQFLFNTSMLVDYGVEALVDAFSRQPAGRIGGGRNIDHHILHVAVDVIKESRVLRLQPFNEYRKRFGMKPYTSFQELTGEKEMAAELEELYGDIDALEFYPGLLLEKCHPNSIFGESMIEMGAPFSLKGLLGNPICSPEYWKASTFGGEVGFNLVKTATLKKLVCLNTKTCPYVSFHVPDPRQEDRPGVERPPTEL
T3 sequence (P79208 whole entry): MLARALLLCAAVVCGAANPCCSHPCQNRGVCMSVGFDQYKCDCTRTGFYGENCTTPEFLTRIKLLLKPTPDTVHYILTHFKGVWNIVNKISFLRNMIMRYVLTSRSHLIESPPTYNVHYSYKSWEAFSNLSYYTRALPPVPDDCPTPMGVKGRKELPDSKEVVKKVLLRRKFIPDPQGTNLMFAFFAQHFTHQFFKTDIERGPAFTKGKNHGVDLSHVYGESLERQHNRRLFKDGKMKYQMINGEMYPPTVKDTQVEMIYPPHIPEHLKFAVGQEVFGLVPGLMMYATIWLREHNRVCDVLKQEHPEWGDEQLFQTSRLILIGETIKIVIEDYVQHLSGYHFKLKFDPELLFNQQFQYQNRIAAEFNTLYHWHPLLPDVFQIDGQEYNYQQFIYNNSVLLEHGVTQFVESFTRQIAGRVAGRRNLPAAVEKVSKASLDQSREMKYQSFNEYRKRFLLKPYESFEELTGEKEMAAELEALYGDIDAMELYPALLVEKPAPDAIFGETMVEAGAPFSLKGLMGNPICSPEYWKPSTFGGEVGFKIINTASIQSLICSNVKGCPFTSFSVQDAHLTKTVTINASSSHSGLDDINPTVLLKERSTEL
In words: Inhibition of Prostaglandin G/H synthase from ram seminal vesicle microsomes.

On Thromboxane-A synthase, `COc1ccc2c(c1)c(Cn1ccnc1)cn2CCC(=O)O` returned an IC50 of 43 nM. In the case of `CCn1cc(Cn2ccnc2)c2ccccc21`, the IC50 was 8.4 nM against Thromboxane-A synthase, 10000 nM in experiment [1] and greater than 0.0001 M in experiment [2]. In turn, `O=C(O)c1ccc(OCCn2ccnc2)cc1` [DAZOXIBEN] yielded an IC50 in experiment [1] greater than 100000 nM. On Thromboxane-A synthase, `O=C(O)CCn1c(C2CC2)c(Cn2ccnc2)c2ccccc21` displayed an IC50 of 4.9 nM. Same read-out and setting: with `O=C(O)CCn1cc(Cn2ccnc2)c2ccc(C(F)(F)F)cc21` the figure was 10 nM. In experiment [2], `CC(C)c1[nH]c2ccccc2c1Cn1ccnc1` showed an IC50 greater than 0.0001 M.

Take `O=C(O)Cn1cc(Cn2ccnc2)c2ccccc21`: the IC50 at Thromboxane-A synthase was 30 nM; in experiment [2] it was greater than 0.0001 M.

`O=C(O)CCn1cc(Cn2ccnc2)c2cc(Cl)ccc21`: inhibition against Thromboxane-A synthase was half-maximal at 21 nM (IC50). Molecule `O=C(O)CCn1cc(Cn2ccnc2)c2cc(Br)ccc21` gave an IC50 at Thromboxane-A synthase of 12 nM. In the case of `O=C(O)CCn1cc(Cn2ccnc2)c2ccccc21`, the IC50 is 19 nM against Thromboxane-A synthase, greater than 10000 nM in experiment [1] and greater than 0.0001 M in experiment [2].

For `CN(C)c1ccc2c(c1)c(Cn1ccnc1)cn2CCC(=O)O`, at Thromboxane-A synthase, inhibition was half-maximal at 82 nM (IC50).

In the case of `Cc1c(Cn2ccnc2)c2ccccc2n1CCC(=O)O` [DAZMEGREL], the figures for the IC50 (on Thromboxane-A synthase; in experiment [1]; in experiment [2]) were 28 nM, greater than 100000 nM and greater than 0.0001 M, respectively. On to `CC(C)c1c(Cn2ccnc2)c2ccccc2n1CCC(=O)O`, for which the IC50 is 8.2 nM against Thromboxane-A synthase and greater than 10000 nM in experiment [1].

The molecule `Cc1ccc2c(c1)c(Cn1ccnc1)cn2CCC(=O)O` registered an IC50 at Thromboxane-A synthase of 42 nM. Same read-out and setting: in the case of `Clc1ccc2[nH]cc(Cn3ccnc3)c2c1` it was 3000 nM. As for `c1ccc2c(Cn3ccnc3)c[nH]c2c1`, the results for the IC50 (against Thromboxane-A synthase; in experiment [1]; in experiment [2]) were 25 nM, 10000 nM and greater than 0.001 M, respectively. `Cc1c(Cn2ccnc2)c2ccccc2n1/C=C/C(=O)O` showed an IC50 on Thromboxane-A synthase of 70 nM.

Consider `FC(F)(F)c1ccc2c(Cn3ccnc3)c[nH]c2c1`, for which inhibition against Thromboxane-A synthase was half-maximal at 4600 nM (IC50).
